Test results taken from patent US9896412B2, “Reagents and method for conjugating biological molecules” (POLYTHERICS LIMITED, priority 2008, dated 2018).

Method: A pH 7.4 D2O solution was made by first freeze-drying a 50 mM sodium phosphate aqueous solution containing 150 mM NaCl and 20 mM EDTA at pH 7.4 and reconstituting to the same volume with deuterium oxide. Acetone was added as a standard to the buffer at 1.0 μl per 3 ml. Samples of the PEG reagents were dissolved at 1 μmol in 0.75 ml of the buffer and analysed after 4 h and after 25.5 h by 400 MHz NMR spectroscopy. The stability of the PEG maleimide samples was determined by comparing the integral at 6.86 ppm after normalising using the integral for the acetone standard at 2.17 ppm.

Question: With “α-methoxy-ω-ethyl-maleinimide polyethylene glycol [PEG maleimide sample 2]” as the substance, how does the “% Degradation over 21.5 h at pH 7.4” value read?
Answer: 19%
